Measured values reported in patent publication US7060683B2, “Hydroxamate-containing cysteine and serine protease inhibitors” (Cephalon, Inc., priority 1998, dated 2006).

Target: T1, Recombinant human calpain I (Homo sapiens, UniProt P07384)
T1 construct: made in house
T1 sequence (P07384 1-714): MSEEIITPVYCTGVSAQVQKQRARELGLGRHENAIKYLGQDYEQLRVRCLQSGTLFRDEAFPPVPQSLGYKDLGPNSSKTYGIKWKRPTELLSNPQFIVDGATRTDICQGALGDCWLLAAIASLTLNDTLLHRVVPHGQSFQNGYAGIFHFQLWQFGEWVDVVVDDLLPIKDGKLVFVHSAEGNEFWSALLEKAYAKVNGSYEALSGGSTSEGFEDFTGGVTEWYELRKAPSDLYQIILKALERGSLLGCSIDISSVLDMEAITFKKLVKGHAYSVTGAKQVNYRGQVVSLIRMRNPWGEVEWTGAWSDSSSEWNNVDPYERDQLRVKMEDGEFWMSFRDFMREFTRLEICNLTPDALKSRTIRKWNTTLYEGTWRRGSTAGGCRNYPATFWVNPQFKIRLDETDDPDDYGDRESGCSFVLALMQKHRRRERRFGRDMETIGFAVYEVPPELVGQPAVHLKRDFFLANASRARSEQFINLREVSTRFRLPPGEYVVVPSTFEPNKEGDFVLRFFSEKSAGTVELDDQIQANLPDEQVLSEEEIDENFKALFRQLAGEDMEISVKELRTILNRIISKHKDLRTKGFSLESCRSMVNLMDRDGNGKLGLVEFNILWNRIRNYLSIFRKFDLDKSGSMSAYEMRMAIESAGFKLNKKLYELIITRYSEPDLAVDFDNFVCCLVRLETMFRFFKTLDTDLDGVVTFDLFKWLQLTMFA
T1 sequence (P04632 1-268 partner): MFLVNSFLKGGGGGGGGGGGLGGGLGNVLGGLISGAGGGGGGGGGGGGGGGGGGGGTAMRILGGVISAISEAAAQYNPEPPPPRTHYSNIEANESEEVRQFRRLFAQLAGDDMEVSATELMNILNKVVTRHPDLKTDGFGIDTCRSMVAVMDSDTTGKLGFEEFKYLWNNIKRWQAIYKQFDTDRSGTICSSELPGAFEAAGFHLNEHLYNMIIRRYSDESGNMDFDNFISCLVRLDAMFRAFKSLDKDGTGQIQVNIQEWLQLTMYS
Experiment: Inhibition of Calpain (Succ-Leu-Tyr-MNA substrate hydrolysis)
Format: biochemical
Settings: 0.2 mM Succ-Leu-Tyr-MNA, pH 7.5, five to seven concentrations
Method: To evaluate inhibitory activity, stock solutions (40 times concentrated) of each compound to be tested were prepared in 100% anhydrous DMSO and 5 μL of each inhibitor preparation were aliquoted into each of three wells of a 96-well plate. Recombinant human calpain I, prepared by the method of Meyer et al. (Biochem., J. 1996, 314: 511–519), was diluted into assay buffer (i.e., 50 mM Tris, 50 mM NaCl, 1 mM EDTA, 1 mM EGTA, and 5 mM β-mercaptoethanol, pH 7.5, including 0.2 mM Succ-Leu-Tyr-MNA), and 175 μl was aliquoted into the same wells containing the independent inhibitor stocks as well as to positive control wells containing 5 μl DMSO, but no compound. To start the reaction, 20 μl of 50 mM CaCl2 in assay buffer was added to all wells of the plate, excepting three, which were used as background signal baseline controls. Substrate hydrolysis was monitored every 5 minutes for a total of 30 minutes.
Inhibition of calpain I activity was calculated as the percent decrease in the rate of substrate hydrolysis in the presence of inhibitor relative to the rate in its absence. Comparison between the inhibited and control rates was made within the linear range for substrate hydrolysis. The IC50s of inhibitors (concentration yielding 50% inhibition) were determined from the percent decrease in rates of substrate hydrolysis in the presence of five to seven different concentrations of the test compound. The results were plotted as percent inhibition versus log inhibitor concentration, and the IC50 was calculated by fitting the data to the four-parameter logistic equation shown below using the program GraphPad Prism (GraphPad Software, Inc., San Diego, Calif.). y=d+[(a−d)/(1+(x/c)^b)]
The parameters a, b, c, and d are defined as follows: a is % inhibition in the absence of inbibitor, b is the slope, c is the IC50, and d is the % innibition at an infinite concentration of inhibitor.

CONC(=O)C(=O)[C@H](Cc1ccccc1)NC(=O)[C@H](CC(C)C)NC(=O)OCc1ccccc1 [Example 1, Cbz-Leu-Phe-CONHOCH3]
IC50: 10 nM

CCONC(=O)C(=O)[C@H](Cc1ccccc1)NC(=O)[C@H](CC(C)C)NC(=O)OCc1ccccc1 [Example 2, Cbz-Leu-Phe-CONHOEt]
IC50: 19 nM

CC(C)C[C@H](NC(=O)OCc1ccccc1)C(=O)N[C@@H](Cc1ccccc1)C(=O)C(=O)NOCc1ccccc1 [Example 3, Cbz-Leu-Phe-CONHOBn]
IC50: 6 nM

CC(C)C[C@H](NC(=O)OCc1ccccc1)C(=O)N[C@@H](Cc1ccccc1)C(=O)C(=O)NOCc1c(F)c(F)c(F)c(F)c1F [Example 4, Cbz-Leu-Phe-CONHOCH2C6F5]
IC50: 17 nM

CC(C)C[C@H](NC(=O)OCc1ccccc1)C(=O)N[C@@H](Cc1ccccc1)C(=O)C(=O)NOC(C)(C)C [Example 5, Cbz-Leu-Phe-CONHOtBu]
IC50: 26 nM

CC(C)C[C@H](NC(=O)OCc1ccccc1)C(=O)N[C@@H](Cc1ccccc1)C(=O)C(=O)NOC1CCC(C)CC1 (stereo partly drawn) [Example 6, Cbz-Leu-Phe-CONHO(4-methylcyclohexane)]
IC50: 21 nM

COC[C@H](NC(=O)[C@@H](COCc1ccccc1)NS(C)(=O)=O)C(=O)C(=O)NOCc1ccccc1 [Example 7, CH3SO2-D-Ser(Bn)-Ser(Me)-CONHOBn]
IC50: 152 nM

CS(=O)(=O)N[C@H](COCc1ccccc1)C(=O)N[C@@H](Cc1ccccc1)C(=O)C(=O)NOCc1ccccc1 [Example 8, CH3SO2-D-Ser(Bn)-Phe-CONHOBn]
IC50: 28 nM

CCONC(=O)C(=O)[C@H](Cc1ccccc1)NC(=O)[C@@H](COCc1ccccc1)NS(C)(=O)=O [Example 9]
IC50: 56 nM

CCCC[C@H](NC(=O)[C@@H](NC(=O)OCc1ccccc1)C(C)C)C(=O)C(=O)NOCc1ccccc1 [Example 11, Cbz-Val-Nle-CONHOBn]
IC50: 21 nM

CONC(=O)C(=O)[C@H](Cc1ccccc1)NC(=O)[C@H](CC(C)C)NC(=O)[C@H](CC(C)C)NC(=O)OCc1ccccc1 [Example 12, Cbz-Leu-Leu-Phe-CONHOCH3]
IC50: 20 nM

CC(C)C[C@H](NC(=O)OCc1ccccc1)C(=O)N[C@@H](CC(C)C)C(=O)N[C@@H](Cc1ccccc1)C(=O)C(=O)NOCc1ccccc1 [Example 13, Cbz-Leu-Leu-Phe-CONHOBn]
IC50: 17 nM

CCCCONC(=O)C(=O)[C@H](Cc1ccccc1)NC(=O)[C@H](CC(C)C)NC(=O)OCc1ccccc1 [Example 14, Cbz-Leu-Phe-CONHOBu]
IC50: 183 nM

CCCC[C@H](NC(=O)[C@H](Cc1ccccc1)NC(=O)c1ccccc1)C(=O)C(=O)NOCC [Example 15, PhCO-Phe-Nle-CONHOEt]
IC50: 193 nM
